Reference: patent publication US20130309187A1, “SKIN-WHITENING AGENT CONTAINING 3-HYDROXY-2-PYRONE” (NICHIREI BIOSCIENCES INC., priority 2011, published 2013)

How the values were obtained:
tyrosinase (Sigma) = assay: Inhibition rate of tyrosinase activity (L-DOPA substrate, absorbance 475 nm); assay type: biochemical
Procedure: In the experiment, 0.2 ml of an enzyme solution containing 72 units/ml tyrosinase (Sigma) was mixed with 1.0 ml of a substrate mixture (i.e., a 2:2:1 mixture of a 6 mM L-DOPA solution, the test composition with the adjusted concentration (hereafter referred to as the “sample”), and phosphate buffer), the absorbance was measured at 475 nm at 37° C. at 0 min and […], and the inhibition rate of tyrosinase activity was determined using the equation shown below.
Inhibition rate of tyrosinase activity (%)=(1−(the difference in the absorbance of the sample between […] and 3 min)/(the difference in the absorbance of the blank between 0 min and 3 min)×100
(§1) In the experiment, 0.2 ml of an enzyme solution containing 72 units/ml tyrosinase (Sigma) was mixed with 1.0 ml of a substrate mixture (i.e., a 2:2:1 mixture of a 6 mM L-DOPA solution, the sample with the adjusted concentration, and phosphate buffer (pH 6.8)), the absorbance was measured at 475 nm at 37° C. at 0 min and 3 min, and the inhibition rate of tyrosinase activity was determined using the equation shown below.
Inhibition rate of tyrosinase activity (%)=(1−(the difference in the absorbance of the sample between 0 min and 3 min)/(the difference in the absorbance of the blank between 0 min and 3 min)×100
as §1, with “buffer),” for “buffer (pH 6.8)),”

tyrosinase = assay: Inhibitory effects on tyrosinase activity (L-tyrosine substrate, time course of absorbance at 475 nm, method of Patent Document 1); assay type: biochemical; details: Experiment 4, FIG. 3, aqueous solution of 1% sample, 0-15 min
Procedure: The experiment was carried out in the same manner as that described in Patent Document 1. An aqueous solution of 1% 3H2P, an aqueous solution of 1% coumalin (Tokyo Chemical Industry Co., Ltd.), an aqueous solution of 1% coumalic acid (Tokyo Chemical Industry Co., Ltd.), and an aqueous solution of 0.01% kojic acid were prepared. Subsequently, 1.45 ml of a substrate-sample mixture comprising an aqueous solution of L-tyrosine (0.3 mg/ml), a sample solution of 3H2P, etc., and McIlvaine buffer (pH 6.8) was introduced into a test tube, 0.05 ml of a tyrosinase solution (1 mg/ml) was added thereto, the resultant was mounted on a spectrophotometer capable of maintaining a constant temperature of 37° C., and the absorbance was measured at 475 nm with the elapse of time (once every minute between 0 min and 15 min).

[1] = tested on: B16 mouse melanoma 4A5 cells; assay: Inhibition of melanin production in B16 mouse melanoma 4A5 cells; assay type: cell-based; details: for Melanin level: 5 days culture with sample, relative to control designated as 100
Procedure: (§2) B16 mouse melanoma 4A5 cells (RIKEN) were seeded at 5.0 x 10^4 cells/well on a 6-well plate and cultured in Dulbecco's modified Eagle's medium (DMEM) supplemented with 10% FBS at 37° C. in the presence of 5% CO2. The medium was exchanged with fresh medium supplemented with the sample on the following day, and culture was conducted in the medium supplemented with the sample for an additional 5 days. The medium was removed 6 days after the initiation of culture, and the cells were collected by using trypsin. The collected cells were suspended in 1N sodium hydroxide, and melanin was extracted via heating. The absorbance of the melanin extract was measured at 405 nm, and the melanin level was quantified with the calibration curve of the melanin reagent (Sigma). In addition, the amount of proteins in the collected cells was determined using the DC Protein Assay KIT (BIO-RAD) and used as the indicator for the viable cell count.
as §2, with “5.0×10^4” for “5.0 x 10^4”

[2] = tested on: B16 mouse melanoma 4A5 cells; assay: Viable cell count (protein amount, DC Protein Assay) in B16 mouse melanoma 4A5 cells
Procedure: as §2
as §2, with “5.0×10^4” for “5.0 x 10^4”

[3] = Experiment 6, FIG. 5, kojic acid, 3H2P and 3H4P compared
[4] = Experiment 7, FIG. 6, 3H4P, 3H2P and kojic acid compared
[5] = Experiment 3, 1 μg/ml, relative to control designated as 100
[6] = Experiment 3, 5 μg/ml, relative to control designated as 100
[7] = Experiment 3, 10 μg/ml, relative to control designated as 100

SMILES | inhibitory effects on tyrosinase activity (tyrosinase (Sigma); [3]) | inhibitory effects on tyrosinase activity (tyrosinase) | Melanin level ([1]; Experiment 3, 1 μg/ml) | Melanin level ([1]; Experiment 3, 5 μg/ml) | Melanin level ([1]; Experiment 3, 10 μg/ml) | inhibitory effects on melanin production [1, 4] | Cell count [2, 5] | Cell count [2, 6] | Cell count [2, 7] | Melanin level ([1]; Experiment 7, 50 μg/ml) | Melanin level ([1]; Experiment 7, 100 μg/ml) | also measured
O=c1occcc1O [3H2P, 3-hydroxy-2-pyrone] | equivalent to those of 3H4P | significantly stronger than those of coumalin and coumalic acid | 71.7 | 34.3 | 20.7 | stronger inhibitory effects on melanin production than such γ-pyrone compounds | 92.2 | 81.9 | 72.4 |  |  | inhibitory effects on tyrosinase activity (tyrosinase (Sigma); Experiment 2, FIG. 1, compared with kojic acid and ascorbic acid): equivalent to those of ascorbic acid, although such effects are somewhat weaker than those of kojic acid; inhibitory effects on tyrosinase activity (tyrosinase (Sigma); Experiment 5, FIG. 4, final concentrations 0.3%, 0.1% and 0.033%): apparently stronger than those of coumalin and coumalic acid; inhibitory effects on melanin production ([1]; Experiment 3, FIG. 2, compared with arbutin and kojic acid): stronger than those of kojic acid and equivalent to those of arbutin; concentration at which inhibitory effects on melanin production are exerted ([1]; Experiment 3, 1 ppm = 1 μg/ml, 0.0001%): ≤ 1 ppm; Melanin level ([1]; Experiment 7, 1 μg/ml): 77.2; Melanin level ([1]; Experiment 7, 5 μg/ml): 42.7; Melanin level ([1]; Experiment 7, 10 μg/ml): 29.6; Cell count ([2]; Experiment 7, 1 μg/ml, relative to control designated as 100): 102.0; Cell count ([2]; Experiment 7, 5 μg/ml, relative to control designated as 100): 98.7; Cell count ([2]; Experiment 7, 10 μg/ml, relative to control designated as 100): 93.8
O=c1ccocc1O [3H4P, 3-Hydroxy-4-pyrone] |  |  |  |  |  | equivalent to those of kojic acid |  |  |  | 88.8 | 50.9 | Cell count ([2]; mouse, 5 days, 50 μg/ml): 89.7; Cell count ([2]; mouse, 5 days, 100 μg/ml): 84.4
OC[C@H]1O[C@@H](Oc2ccc(O)cc2)[C@H](O)[C@@H](O)[C@@H]1O [Arbutin, arbutin] |  |  | 82.4 | 43.0 | 23.9 |  | 96.2 | 91.7 | 86.0 |  |  | 
O=c1cc(CO)occ1O [Kojic acid, kojic acid] | strongest inhibitory effects on tyrosinase activity |  |  |  |  |  |  |  |  | 85.6 | 65.3 | Melanin level ([1]; Experiment 3, 50 μg/ml): 76.5; Melanin level ([1]; Experiment 3, 100 μg/ml): 65.7; Cell count ([2]; Experiment 3, 50 μg/ml, relative to control designated as 100): 80.2; Cell count ([2]; Experiment 3, 100 μg/ml, relative to control designated as 100): 74.1; Cell count ([2]; Experiment 7, 50 μg/ml, relative to control designated as 100): 80.2; Cell count ([2]; Experiment 7, 100 μg/ml, relative to control designated as 100): 74.1
O=C(O)c1ccc(=O)oc1 [coumalic acid] |  | strong inhibitory effects |  |  |  |  |  |  |  |  |  | 
O=c1cccco1 [coumalin] |  | insignificant levels of inhibitory effects |  |  |  |  |  |  |  |  |  | 
